Results: paper PMC6521598, “Identification of GLPG/ABBV-2737, a Novel Class of Corrector, Which Exerts Functional Synergy With Other CFTR Modulators” (Frontiers in Pharmacology, 2019)

What was measured:
F508del CFTR = F508del CFTR (Homo sapiens, UniProt P13569, DEL508-508); assay: Patch-clamp single-channel recording, inside-out patches of CHO cells; assay type: cell-based, hamster
Procedure: A more complete description of the patch-clamp methodology can be found in a recent publication ([Lin et al., 2016]). Briefly, CHO (Chinese Hamster Ovary) cells were transiently transfected with pcDNA plasmids containing a F508del CFTR construct and pEGFP-C3. After transfection, cells were trypsinized and plated onto 35 mm tissue culture dishes dispersed with sterilized glass chips. Electrophysiological experiments were performed 3–7 days following transfection.
Patch-clamp experiments were performed at room temperature with an EPC-9 patch clamp amplifier (HEKA Instruments, Holliston, MA, United States). Recording microelectrodes were made from borosilicate capillary glass with a two-stage pipette puller (Narishige, Tokyo, Japan). The pipette tip was polished with a home-made microforge before use. The pipette solution contained (in mM) 140 NMDG (N-methyl-D-glucamine)-Cl (Fisher Biotec), 2 MgCl2 (Fisher Biotec, Perth, WA, Australia), 5 CaCl2 (Fisher Biotec), and 10 HEPES (Fisher Biotec), pH 7.4, with NMDG (see [Lin et al., 2016] for details). The pipette resistance when filled with the regular pipette solution was 3–5 MΩ. Once the tip of the pipette and the cell membrane established GΩ resistance, the electrode was quickly pulled away from the cell to form an inside-out patch, where the cytosolic side of the membrane was exposed to the perfusion solution. Cells were perfused with a bath solution having (in mM) 145 NaCl (Fisher Biotec), 5 KCl (Fisher Biotec), 2 MgCl2, 1 CaCl2, 5 glucose (Fisher Biotec), 5 HEPES, and 20 sucrose (Fisher Biotec), pH 7.4, with NaOH (Fisher Biotec). After establishing an inside-out configuration, the patch was perfused with a standard perfusion solution (i.e., intracellular solution) containing (in mM) 150 NMDG-Cl, 2 MgCl2, 10 EGTA (Fisher Biotec), and 8 Tris (Fisher Biotec), pH 7.4, with NMDG (see [Lin et al., 2016] for details) containing the catalytic subunit of protein kinase A (PKA) and 2 mM ATP. Once the phosphorylation-dependent activation of CFTR reached a plateau, 10 μM GLPG3067 was applied in the continuous presence of 2 mM ATP until a steady state was attained.
Microscopic kinetic analysis was performed with a program provided by Dr. László Csanády (Semmelweis University, Budapest, Hungary) ([Csanády, 2000]). Experiments were performed four to five times and averages and SEM were calculated. The resulting Open probability (Po) values and single-channel kinetic parameters were compared with paired t-test (Excel, Microsoft); P < 0.05 is considered statistically significant.

P67L CFTR = molecular target: T1, P67L CFTR (Homo sapiens, UniProt P13569, P67L); assay: YFP halide assay (YHA), HEK293, P67L; assay type: cell-based; settings: for rescue of P67L: YFP halide assay
T1 construct: expressed in transfected cells; host or cells: HEK293
T1 sequence (P13569 whole entry P67L): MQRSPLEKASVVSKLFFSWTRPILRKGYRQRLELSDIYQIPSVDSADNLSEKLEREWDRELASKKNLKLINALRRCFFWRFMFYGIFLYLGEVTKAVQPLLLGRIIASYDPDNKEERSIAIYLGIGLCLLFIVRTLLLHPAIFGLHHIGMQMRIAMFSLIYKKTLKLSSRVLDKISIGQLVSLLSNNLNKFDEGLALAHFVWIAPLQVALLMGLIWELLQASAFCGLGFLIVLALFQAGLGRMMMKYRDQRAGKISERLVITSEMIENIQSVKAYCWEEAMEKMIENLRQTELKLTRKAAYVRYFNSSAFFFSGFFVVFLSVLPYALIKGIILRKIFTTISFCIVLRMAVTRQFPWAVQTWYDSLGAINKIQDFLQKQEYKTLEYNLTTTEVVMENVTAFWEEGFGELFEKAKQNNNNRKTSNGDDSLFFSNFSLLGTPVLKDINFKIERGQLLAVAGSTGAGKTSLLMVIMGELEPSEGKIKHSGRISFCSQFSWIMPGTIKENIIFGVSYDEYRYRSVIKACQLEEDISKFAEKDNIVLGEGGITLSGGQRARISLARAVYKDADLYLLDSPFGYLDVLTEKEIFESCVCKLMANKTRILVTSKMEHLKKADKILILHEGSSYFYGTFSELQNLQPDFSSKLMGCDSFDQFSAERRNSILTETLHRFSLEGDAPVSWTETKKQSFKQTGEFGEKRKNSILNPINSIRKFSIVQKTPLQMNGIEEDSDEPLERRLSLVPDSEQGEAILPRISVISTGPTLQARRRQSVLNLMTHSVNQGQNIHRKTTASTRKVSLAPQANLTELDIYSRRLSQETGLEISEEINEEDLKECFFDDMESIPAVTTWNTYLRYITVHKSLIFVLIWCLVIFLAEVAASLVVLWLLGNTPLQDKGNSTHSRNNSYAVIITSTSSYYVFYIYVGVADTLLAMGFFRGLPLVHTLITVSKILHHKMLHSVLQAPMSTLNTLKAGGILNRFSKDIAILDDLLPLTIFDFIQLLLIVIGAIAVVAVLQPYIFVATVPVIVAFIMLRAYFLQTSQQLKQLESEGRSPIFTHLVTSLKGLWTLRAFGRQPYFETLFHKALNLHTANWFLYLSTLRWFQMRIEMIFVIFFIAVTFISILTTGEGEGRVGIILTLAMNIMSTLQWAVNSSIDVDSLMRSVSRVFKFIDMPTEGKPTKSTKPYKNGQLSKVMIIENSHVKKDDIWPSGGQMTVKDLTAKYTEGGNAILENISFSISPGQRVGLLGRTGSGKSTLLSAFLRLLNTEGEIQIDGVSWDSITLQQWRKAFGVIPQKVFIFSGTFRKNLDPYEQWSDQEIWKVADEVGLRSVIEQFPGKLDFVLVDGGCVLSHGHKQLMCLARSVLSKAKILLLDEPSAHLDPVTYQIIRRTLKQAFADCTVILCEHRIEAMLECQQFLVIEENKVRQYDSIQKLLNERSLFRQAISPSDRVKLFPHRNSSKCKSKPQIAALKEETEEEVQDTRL
Procedure: (§1) HEK293 cells were transfected with 10–80 ng of plasmid encoding F508del, E92K, P67L, V232D, F508del/G550E, F508del/I539T or wild type CFTR and 20 ng of plasmid encoding YFP (H148Q/I152L/F47L) using jetPEI (Polyplus transfection). Directly after transfection, cells were seeded in black 96-well plates coated with poly-D-lysine at a density of 70,000 cells per well. The next day, cells were treated with corrector(s) for 24 h. After this incubation period, cells were washed twice with DPBS with Ca^2+ and Mg^2+. Subsequently, cells were treated with 10 μM forskolin and the desired concentration of potentiator in a volume of 40 μl and incubated at room temperature for 10 min, a time point optimized in previous experiments resulting in a good window (positive control/negative control > 2) and signal to background ratio. YFP fluorescence was measured using an EnVision plate reader (PerkinElmer). […] The excitation wavelength was 485 nm and the emission wavelength 530 nm. The capacity of potentiators to increase CFTR channel function was expressed as 1-(fluorescence 7 s after NaI addition (F)/fluorescence before NaI addition (F0)). For the different mutants, data was normalized using the formula: normalized response = 100^∗(absolute response – negative control response)/(GLPG2222 response – negative response) as such, GLPG2222 response corresponds to 100. Concentration–response experiments were fitted using a 4 parameter hill function of the form Response = Bottom + (Top - Bottom)/(1 + (EC50/concentration) ˆHillSlope)) to determine EC50 values.
FIGURE 7 YHA assay using CFTR mutant overexpression in HEK293 cells. Cells were incubated for 24 h with either a dose range of GLPG2737, GLPG2222 or VX809. After washing, cells were triggered with forskolin (50 μM for F508del, E92K, V232D and F508del/I539T, 10 μM for P67L or 1 μM for F508del/G550E) and 0.5 μM potentiator and YFP fluorescence was measured. Efficacy was determined using 10 μM GLPG2222 as positive control and DMSO as negative control in the assay. (A) Table with potency and efficacy obtained for the mutants and compounds tested. (B) Dose–response curves of GLPG2737. (C) Dose–response curves of GLPG2222. (D) Dose–response curves of VX-809. For panels (B–D), E92K mutant is represented in black, F508del mutant in blue, F508del/I539T mutant in green and V232D mutant in gray, all concentrations are tested in duplicate. […] All values containing these digits are best readings, e.g. GLPG2222 P67L EC50 206 (± 98), GLPG2222 E92K EC50 503 (± 109), VX809 F508del EC50 286 (± 35), VX809 P67L % of reference 88 (± 3), GLPG2737 F508del % of reference 138 (± 9). / GLPG2737, EC50 for P67L and E92K is printed as NA; left out because no value is given. / VX809, E92K EC50 error: 17, a digit may be missing.

V232D CFTR = molecular target: T2, V232D CFTR (Homo sapiens, UniProt P13569, V232D); assay: YFP halide assay (YHA), HEK293, V232D; assay type: cell-based; settings: 24 h; 50 μM forskolin + 0.5 μM potentiator
T2 construct: expressed in transfected cells; host or cells: HEK293
T2 sequence (P13569 whole entry V232D): as the sequence (P13569 whole entry P67L) above, with L67P, V232D counted along it
Procedure: as §1, with “For the different mutants, data was normalized using the formula: normalized response = 100^∗(absolute response – negative control response)/(GLPG2222 response – negative response) as such, GLPG2222 response corresponds to 100. Concentration–response experiments were fitted using a 4 parameter hill function of the form Response = Bottom + (Top - Bottom)/(1 + (EC50/concentration) ˆHillSlope)) to determine EC50 values.” left out
(§2) FIGURE 7 YHA assay using CFTR mutant overexpression in HEK293 cells. […] After washing, cells were triggered with forskolin (50 μM for F508del, E92K, V232D and F508del/I539T, 10 μM for P67L or 1 μM for F508del/G550E) and 0.5 μM potentiator and YFP fluorescence was measured. Efficacy was determined using 10 μM GLPG2222 as positive control and DMSO as negative control in the assay. […] All values containing these digits are best readings, e.g. GLPG2222 P67L EC50 206 (± 98), GLPG2222 E92K EC50 503 (± 109), VX809 F508del EC50 286 (± 35), VX809 P67L % of reference 88 (± 3), GLPG2737 F508del % of reference 138 (± 9). / GLPG2737, EC50 for P67L and E92K is printed as NA; left out because no value is given. / VX809, E92K EC50 error: 17, a digit may be missing.

F508del/G550E CFTR = molecular target: T3, F508del/G550E CFTR (Homo sapiens, UniProt P13569, DEL508-508/G550E); assay: YFP halide assay (YHA), HEK293, F508del/G550E; assay type: cell-based; settings: 24 h; 1 μM forskolin + 0.5 μM potentiator
T3 construct: expressed in transfected cells; host or cells: HEK293
T3 sequence (P13569 with tags, fused parts or gaps DEL508-508/G550E): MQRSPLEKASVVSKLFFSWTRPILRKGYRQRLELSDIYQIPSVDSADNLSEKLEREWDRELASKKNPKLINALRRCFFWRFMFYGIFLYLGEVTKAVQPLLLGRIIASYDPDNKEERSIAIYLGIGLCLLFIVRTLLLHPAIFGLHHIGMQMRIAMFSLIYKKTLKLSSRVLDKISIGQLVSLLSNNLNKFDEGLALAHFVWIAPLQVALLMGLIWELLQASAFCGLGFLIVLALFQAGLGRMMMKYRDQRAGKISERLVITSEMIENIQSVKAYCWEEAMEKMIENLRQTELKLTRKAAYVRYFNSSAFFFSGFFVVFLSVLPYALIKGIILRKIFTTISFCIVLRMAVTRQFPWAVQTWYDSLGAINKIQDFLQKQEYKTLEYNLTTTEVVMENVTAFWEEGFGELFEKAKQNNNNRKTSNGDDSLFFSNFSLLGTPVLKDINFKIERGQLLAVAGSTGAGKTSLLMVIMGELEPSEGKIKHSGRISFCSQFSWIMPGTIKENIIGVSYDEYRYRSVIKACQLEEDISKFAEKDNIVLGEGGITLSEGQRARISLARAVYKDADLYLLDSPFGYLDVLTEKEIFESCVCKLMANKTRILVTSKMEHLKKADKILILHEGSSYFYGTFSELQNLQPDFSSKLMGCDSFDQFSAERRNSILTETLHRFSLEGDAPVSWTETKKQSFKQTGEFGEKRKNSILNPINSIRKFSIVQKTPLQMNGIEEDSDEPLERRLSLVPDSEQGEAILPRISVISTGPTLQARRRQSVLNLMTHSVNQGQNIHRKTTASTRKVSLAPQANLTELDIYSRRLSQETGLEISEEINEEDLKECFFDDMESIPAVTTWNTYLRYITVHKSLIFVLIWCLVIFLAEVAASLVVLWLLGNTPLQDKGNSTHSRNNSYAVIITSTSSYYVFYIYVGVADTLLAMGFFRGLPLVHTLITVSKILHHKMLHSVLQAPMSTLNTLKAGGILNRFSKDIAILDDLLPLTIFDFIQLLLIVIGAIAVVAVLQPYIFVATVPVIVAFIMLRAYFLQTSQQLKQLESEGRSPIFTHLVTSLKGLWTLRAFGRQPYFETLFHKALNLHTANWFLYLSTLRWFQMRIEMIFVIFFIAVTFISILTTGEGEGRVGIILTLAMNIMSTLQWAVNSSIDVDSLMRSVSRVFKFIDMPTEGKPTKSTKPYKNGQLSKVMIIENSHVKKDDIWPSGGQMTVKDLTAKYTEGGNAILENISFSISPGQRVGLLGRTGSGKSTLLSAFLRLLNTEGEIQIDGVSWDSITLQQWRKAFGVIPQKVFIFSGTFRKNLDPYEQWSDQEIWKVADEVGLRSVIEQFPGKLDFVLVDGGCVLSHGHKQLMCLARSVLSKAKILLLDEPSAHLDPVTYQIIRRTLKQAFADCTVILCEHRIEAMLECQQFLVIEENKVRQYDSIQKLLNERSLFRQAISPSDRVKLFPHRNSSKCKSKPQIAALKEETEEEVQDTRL
Procedure: as §1, with “For the different mutants, data was normalized using the formula: normalized response = 100^∗(absolute response – negative control response)/(GLPG2222 response – negative response) as such, GLPG2222 response corresponds to 100. Concentration–response experiments were fitted using a 4 parameter hill function of the form Response = Bottom + (Top - Bottom)/(1 + (EC50/concentration) ˆHillSlope)) to determine EC50 values.” left out
as §2

F508del/I539T CFTR = molecular target: T4, F508del/I539T CFTR (Homo sapiens, UniProt P13569, DEL508-508/I539T); assay: YFP halide assay (YHA), HEK293, F508del/I539T; assay type: cell-based; settings: 24 h; 50 μM forskolin + 0.5 μM potentiator
T4 construct: expressed in transfected cells; host or cells: HEK293
T4 sequence (P13569 with tags, fused parts or gaps DEL508-508/I539T): as the sequence (P13569 with tags, fused parts or gaps DEL508-508/G550E) above, with I538T, E549G counted along it
Procedure: as §1, with “For the different mutants, data was normalized using the formula: normalized response = 100^∗(absolute response – negative control response)/(GLPG2222 response – negative response) as such, GLPG2222 response corresponds to 100. Concentration–response experiments were fitted using a 4 parameter hill function of the form Response = Bottom + (Top - Bottom)/(1 + (EC50/concentration) ˆHillSlope)) to determine EC50 values.” left out
as §2

[1] = cells treated 24 h with 0.5 μM GLPG2222 only, n = 3
[2] = acute addition of 1 μM GLPG2737 on top of 0.5 μM GLPG2222 + 10 μM GLPG3067
[3] = cells pre-treated 24 h with 0.5 μM GLPG2222 + 1 μM GLPG2737 + 10 μM GLPG3067, compounds in recording solution
[4] = same pre-treatment, after washout of GLPG2737 (GLPG2222 + GLPG3067 present)

F508del CFTR, sequence (P13569 with tags, fused parts or gaps DEL508-508): as the sequence (P13569 with tags, fused parts or gaps DEL508-508/G550E) above, with E549G counted along it

Structure (SMILES)	Po (F508del CFTR; [1])	τc (F508del CFTR; [1]) [s]	τo (F508del CFTR; [1]) [s]	EC50 (P67L CFTR; 24 h, 10 μM forskolin + 0.5 μM potentiator) [nM]	rescue of P67L (P67L CFTR)	EC50 (V232D CFTR) [nM]	EC50 (F508del/G550E CFTR) [nM]	EC50 (F508del/I539T CFTR) [nM]	Po (F508del CFTR; [2])	τc (F508del CFTR; [2]) [s]	τo (F508del CFTR; [2]) [s]	apparent Po (F508del CFTR; [3])	τc (F508del CFTR; [3]) [s]	τo (F508del CFTR; [3]) [s]	Po (F508del CFTR; [4])	τc (F508del CFTR; [4]) [s]	τo (F508del CFTR; [4]) [s]
O=C(O)c1ccc([C@H]2C[C@@H](NC(=O)C3(c4ccc5c(c4)OC(F)(F)O5)CC3)c3ccc(OC(F)F)cc3O2)cc1 [GLPG2222, 4-[(2 R,4 R)-4-({[1-(2,2-Difluoro-1,3-benzodioxol-5-yl)cyclopropyl]carbonyl}amino)-7-(difluoromethoxy)-3,4-dihydro-2 H -chromen-2-yl]benzoic Acid]	0.04 ± 0.01	6.88 ± 3.36	0.25 ± 0.08	206	could be rescued	14	9	4									
COC1CCN(C2CCN(c3cc(C(=O)NS(=O)(=O)N(C)C)nc4c3c(C3CCC3)nn4-c3ccc(F)cc3)CC2)CC1 [GLPG2737]					absence of rescue	161	251	67	0.15 ± 0.01	6.42 ± 1.24	1.37 ± 0.33	0.21 ± 0.003	10.35 ± 2.22	2.68 ± 0.59	0.63 ± 0.05	1.89 ± 0.38	3.28 ± 0.09
